# Test results taken from PubChem BioAssay (NCI).
#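 The compound was tested at five concentrations on cells cultured in 96-well plates, with a 48-hour exposure period. TGI: total growth inhibition.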 Where a SMILES comes first, the peptide text is derived from it. The star is where a group is joined. Fmoc = O=C(OCC1c2ccccc2-c2ccccc21)*; Boc = CC(C)(C)OC(=O)*
# What was measured:
# Test in all cases: growth of human tumour cells (NCI), 48 h
# SR leukemia = system: SR leukemia
# 786-0 renal = system: 786-0 renal
# A549 NSCLC = system: A549 NSCLC
# MDA-MB-231 breast = system: MDA-MB-231 breast
# RXF 393 renal = system: RXF 393 renal
# SF-295 CNS = system: SF-295 CNS
# EKVX NSCLC = system: EKVX NSCLC
# UO-31 renal = system: UO-31 renal
# UACC-257 melanoma = system: UACC-257 melanoma
# CAKI-1 renal = system: CAKI-1 renal
# A498 renal = system: A498 renal
SMILES,TGI (SR leukemia),TGI (786-0 renal),TGI (A549 NSCLC),TGI (MDA-MB-231 breast),TGI (RXF 393 renal),TGI (SF-295 CNS),TGI (EKVX NSCLC),TGI (UO-31 renal),TGI (UACC-257 melanoma),TGI (CAKI-1 renal),TGI (A498 renal)
COC1(OC)CC(CO)(CNc2cc(Cl)nc(N)n2)C1,> 100 µM,> 100 µM,> 100 µM,> 100 µM,> 100 µM,> 100 µM,> 100 µM,> 100 µM,> 100 µM,> 100 µM,–
CCSc1cc(=O)n(C)c(=O)n1C,–,> 100 µM,> 100 µM,> 100 µM,> 100 µM,> 100 µM,> 100 µM,> 100 µM,> 100 µM,> 100 µM,> 100 µM
C/C(=C/C(=O)Nn1c(Cc2ccccc2)n[nH]c1=O)C(=O)O,–,> 100 µM,> 100 µM,> 100 µM,> 100 µM,> 100 µM,> 100 µM,> 100 µM,> 100 µM,> 100 µM,–
O=C(O)c1cnc2[nH]ccn2c1=O,> 100 µM,> 100 µM,> 100 µM,> 100 µM,–,> 100 µM,> 100 µM,> 100 µM,> 100 µM,–,> 100 µM
CCOc1ccc(/C=N/[N+](C)(C)C)cc1OCC,> 10 µM,> 10 µM,> 10 µM,> 10 µM,–,> 10 µM,–,–,> 10 µM,> 10 µM,–
Cc1cccnc1/N=C/c1c(O)n(C)c(=O)[nH]c1=O,–,> 100 µM,> 100 µM,–,–,> 100 µM,> 100 µM,> 100 µM,> 100 µM,> 100 µM,> 100 µM
CSc1c(C#N)c(N)nc2c(N=Nc3ccc(Cl)cc3)c(N)nn12,–,7.1 µM,> 73.8 µM,4.85 µM,5.79 µM,62.3 µM,11.4 µM,4.42 µM,10.2 µM,34.5 µM,> 100 µM
CCOC(=O)C(C(=S)Nc1ccccc1)c1nn2c(=O)cc(C)nc2s1 (stereo not drawn),80.9 µM,> 100 µM,> 100 µM,70 µM,> 100 µM,> 100 µM,49.2 µM,70 µM,52.2 µM,84.7 µM,–
O=C1CCC(=O)N1n1c(Cc2ccc(Cl)cc2)n[nH]c1=O,–,> 100 µM,> 100 µM,> 100 µM,–,> 100 µM,> 100 µM,> 100 µM,> 100 µM,> 100 µM,> 100 µM
COc1ccc(/C=C2\N=C(c3ccccc3)N(N=C3NC(=O)CC(=O)N3)C2=O)cc1,> 100 µM,> 100 µM,> 100 µM,> 100 µM,> 100 µM,–,–,> 100 µM,> 100 µM,> 100 µM,> 100 µM
Cc1ccc(OC2CC(n3cnc4ncnc(Cl)c43)OC2Oc2ccc(C)cc2)cc1 (stereo not drawn),> 100 µM,> 100 µM,82.5 µM,50.2 µM,–,56.7 µM,> 100 µM,23.9 µM,> 100 µM,5.93 µM,> 100 µM
CC(C)(C)OC(=O)NCCCCC(NC(=O)OCC1c2ccccc2-c2ccccc21)C(=O)N1CCCC1C(=O)NCC(N)=O (stereo not drawn) (Fmoc-Lys(Boc)-Pro-Gly-NH2; configuration not given here),49.5 µM,34.3 µM,> 100 µM,> 100 µM,> 100 µM,> 100 µM,> 100 µM,29.1 µM,> 100 µM,30.1 µM,–
Nc1nc(N)c2ncn(Cc3ccccc3CCl)c2n1,> 100 µM,> 100 µM,> 100 µM,> 100 µM,–,> 100 µM,> 100 µM,> 100 µM,> 100 µM,> 100 µM,> 100 µM
N#CCCC1(CCC#N)CCCCCCCCC(CCC#N)(CCC#N)C(=O)C1=O,> 100 µM,> 100 µM,> 100 µM,–,–,> 100 µM,> 100 µM,–,> 100 µM,> 100 µM,–
O=C1/C(=C/c2cccc(Br)c2)CSC/C1=C\c1cccc(Br)c1,> 100 µM,11.8 µM,41.5 µM,48.9 µM,3.79 µM,5.14 µM,19.9 µM,3.71 µM,5.9 µM,6.06 µM,–
CCn1cc(C(=O)O)c(=O)c2cc3c(cc21)S(=O)(=O)CC3,–,> 100 µM,> 100 µM,> 100 µM,> 100 µM,> 100 µM,> 100 µM,> 100 µM,> 100 µM,> 100 µM,> 100 µM
COCOc1c(C(O[Si](C)(C)C(C)(C)C)c2cnc(Sc3ccccc3)n2C)ccc(OC)c1OC (stereo not drawn),7.74 µM,4.41 µM,4.33 µM,3.19 µM,2.71 µM,6.18 µM,7.65 µM,3.32 µM,4.6 µM,10.1 µM,–
